For 25 molecules, TGI and GI50 results are on record in PubChem BioAssay (NCI).

SMILES strings stand for the structures.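 Results reflect a 48-hour exposure of cells in 96-well plates to compound at five concentrations. The concentration for 50% growth inhibition is given as GI50. TGI is the concentration that stops growth completely.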

For the first assay, the system named is DU-145 prostate. As to the kind of experiment: NCI anticancer screen, dose series, 48 h.
Molecule `COc1ccc(C2CC(c3c(O)ccc4ccccc34)=NN2c2ccc([N+](=O)[O-])cc2[N+](=O)[O-])cc1OC` (stereo not drawn) registered a TGI greater than 100 µM.
Still for that read-out and setting: in the case of `C=C1CC(COc2cc(=O)oc3ccccc23)(c2ccccc2)OC1=O` (stereo not drawn) it was 5.74 µM; in that of `O=C(O)CSc1nnc(COc2ccc(Cl)cc2)n1-c1ccccc1`, greater than 100 µM.
On the same count and under the same terms, in the case of `CN(C)CCCOc1nc2c(c(=O)n(C)c(=O)n2C)n1C` (tested in a mixture with another compound) it was 39.5 µM; in that of `C[N+]1=C2[B-](C(C)(C)C)=[N+](C(C)(C)C)[B-]2(C(C)(C)C)[N+](C)=C2[B-](C(C)(C)C)=[N+](C(C)(C)C)[B-]21C(C)(C)C` (stereo not drawn), greater than 100 µM; in that of `Brc1ccc(CCNCCN2CCCCC2)cc1`, greater than 100 µM.
On the same count and under the same terms, to `OC1C2[C@@H](O)CCCN2C[C@@H](O)[C@H]1O` (stereo partly drawn) belongs greater than 100 µM; to `COCOC1/C=C/CCCC#C[C@H](C)C(=O)CC1` (stereo partly drawn), 28 µM.
Regarding `COc1ccc2[nH]c(O)c(/C=c3/cc4c(c(-c5cc(OC)c(OC)c(OC)c5)n3)=Nc3ccccc3-4)c2c1`, the GI50 was 88.2 µM and the TGI was greater than 100 µM.
With `CC[C@]1(Cc2ccc(OC)c(OC)c2)CN(S(=O)(=O)c2ccc(C)cc2)C[C@@H]1OC(C)=O`, the TGI was greater than 100 µM.
The same measure, in the same setting: to `CC(C)(C)c1ccc2c(c1)CNCCNCc1cc(C(C)(C)C)ccc1OCC1(CO2)COc2ccc(C(C)(C)C)cc2CNCCNCc2cc(C(C)(C)C)ccc2OC1` belongs 3.15 µM.
The same measure, in the same setting: to `NCC1CCN(c2nc3ccccc3c3c2CCCC3)CC1` belongs 25.9 µM; to `CCN(CC)CCc1c2c(nc3ccccc13)C(=O)c1cccnc1C2=O`, 1.84 µM; to `Cc1c(F)c(N)c2c(=O)cc(-c3ccc(NC(=O)CN(C)C)c(F)c3)oc2c1F`, greater than 100 µM.
The same measure, in the same setting: in the case of `COc1ccccc1Nc1nc(N)nc(N)c1N=O` it was greater than 100 µM.
`COc1cccc2c(N)c3cccc(C(=O)NCCN(C)C)c3nc12` had a TGI of 2.64 µM.
The molecule `O=C(CCCCCCCCC(=O)NN1C(=O)/C(=C\c2ccc(O)c(O)c2)SC1c1ccc(Cl)cc1)NN1C(=O)/C(=C\c2ccc(O)c(O)c2)SC1c1ccc(Cl)cc1` (stereo not drawn) displayed a TGI of 81.1 µM.
Same read-out and setting: in the case of `O=C1/C(=C/c2ccccc2)N=C(c2ccccc2)N1n1c(-c2ccccc2)nc2ccccc2c1=O` it was greater than 100 µM; in that of `Oc1ccc(/C=C/c2cc(O)cc(O)c2)cc1`, 85.3 µM; in that of `O=C(O)c1c2c(cc3c1CC1(Cc4ccccc4C1)C3)CCC2`, greater than 100 µM.
The same measure, in the same setting: to `Cc1nc(-c2ccc([N+](=O)[O-])cc2)cn2c1nc1ccccc12` belongs greater than 100 µM.
The same measure, in the same setting: to `Cc1nnc2n1N=C(c1cc(F)c(Cl)cc1Cl)/C(=C/c1ccc(Cl)cc1)S2` belongs 48.6 µM; to `CC(O[Si](c1ccccc1)(c1ccccc1)C(C)(C)C)[C@H](NC(=O)OC(C)(C)C)C(=O)O[Si](c1ccccc1)(c1ccccc1)C(C)(C)C` (stereo partly drawn), 25.6 µM; to `COc1ccc(-c2cc(-c3ccco3)c(C#N)c(=S)n2C2OC(COC(C)=O)C(OC(C)=O)C(OC(C)=O)C2OC(C)=O)cc1` (stereo not drawn), 20.3 µM.
For the molecule `CCCCN1C(=O)CC2[C@@H]3CCc4cc(OC(C)=O)ccc4C3CC[C@]2(C)C1=O` (stereo partly drawn), the TGI was greater than 10 µM.

The test system of the next assay is HOP-92 NSCLC. As to the kind of experiment: NCI anticancer screen, dose series, 48 h.
`COc1ccc(C2CC(c3c(O)ccc4ccccc34)=NN2c2ccc([N+](=O)[O-])cc2[N+](=O)[O-])cc1OC` (stereo not drawn): the TGI stood at 58.7 µM.
Still for that read-out and setting: to `C=C1CC(COc2cc(=O)oc3ccccc23)(c2ccccc2)OC1=O` (stereo not drawn) belongs 2.34 µM.
With `O=C(O)CSc1nnc(COc2ccc(Cl)cc2)n1-c1ccccc1`, the TGI is greater than 100 µM.
On the same count and under the same terms, to `CN(C)CCCOc1nc2c(c(=O)n(C)c(=O)n2C)n1C` (tested in a mixture with another compound) belongs greater than 100 µM; to `C[N+]1=C2[B-](C(C)(C)C)=[N+](C(C)(C)C)[B-]2(C(C)(C)C)[N+](C)=C2[B-](C(C)(C)C)=[N+](C(C)(C)C)[B-]21C(C)(C)C` (stereo not drawn), greater than 100 µM.
`Brc1ccc(CCNCCN2CCCCC2)cc1`: the TGI came to 23.5 µM.
Still for that read-out and setting: to `OC1C2[C@@H](O)CCCN2C[C@@H](O)[C@H]1O` (stereo partly drawn) belongs greater than 100 µM.
Still for that read-out and setting: in the case of `COCOC1/C=C/CCCC#C[C@H](C)C(=O)CC1` (stereo partly drawn) it was 19.2 µM.
In the case of `COc1ccc2[nH]c(O)c(/C=c3/cc4c(c(-c5cc(OC)c(OC)c(OC)c5)n3)=Nc3ccccc3-4)c2c1`, the GI50 was 3.43 µM and the TGI was 99.2 µM.
As to `CC[C@]1(Cc2ccc(OC)c(OC)c2)CN(S(=O)(=O)c2ccc(C)cc2)C[C@@H]1OC(C)=O`, the TGI was greater than 100 µM.
Same read-out and setting: to `CC(C)(C)c1ccc2c(c1)CNCCNCc1cc(C(C)(C)C)ccc1OCC1(CO2)COc2ccc(C(C)(C)C)cc2CNCCNCc2cc(C(C)(C)C)ccc2OC1` belongs 2.58 µM; to `NCC1CCN(c2nc3ccccc3c3c2CCCC3)CC1`, 24.1 µM.
Still for that read-out and setting: in the case of `CCN(CC)CCc1c2c(nc3ccccc13)C(=O)c1cccnc1C2=O` it was 40.1 µM.
With `Cc1c(F)c(N)c2c(=O)cc(-c3ccc(NC(=O)CN(C)C)c(F)c3)oc2c1F`, the GI50 was greater than 36.4 µM and the TGI is 99.4 µM.
With `COc1ccccc1Nc1nc(N)nc(N)c1N=O`, the TGI is greater than 100 µM.
Consider `COc1cccc2c(N)c3cccc(C(=O)NCCN(C)C)c3nc12`, for which the TGI was found to be 1.3 µM.
Still for that read-out and setting: in the case of `O=C(CCCCCCCCC(=O)NN1C(=O)/C(=C\c2ccc(O)c(O)c2)SC1c1ccc(Cl)cc1)NN1C(=O)/C(=C\c2ccc(O)c(O)c2)SC1c1ccc(Cl)cc1` (stereo not drawn) it was 43.8 µM; in that of `O=C1/C(=C/c2ccccc2)N=C(c2ccccc2)N1n1c(-c2ccccc2)nc2ccccc2c1=O`, greater than 100 µM; in that of `Oc1ccc(/C=C/c2cc(O)cc(O)c2)cc1`, greater than 100 µM.
On the same count and under the same terms, to `O=C(O)c1c2c(cc3c1CC1(Cc4ccccc4C1)C3)CCC2` belongs 52.5 µM; to `Cc1nc(-c2ccc([N+](=O)[O-])cc2)cn2c1nc1ccccc12`, greater than 100 µM.
Molecule `Cc1nnc2n1N=C(c1cc(F)c(Cl)cc1Cl)/C(=C/c1ccc(Cl)cc1)S2` gave a TGI of 60.1 µM.
In the case of `CC(O[Si](c1ccccc1)(c1ccccc1)C(C)(C)C)[C@H](NC(=O)OC(C)(C)C)C(=O)O[Si](c1ccccc1)(c1ccccc1)C(C)(C)C` (stereo partly drawn), the TGI was found to be 23.2 µM.
For `COc1ccc(-c2cc(-c3ccco3)c(C#N)c(=S)n2C2OC(COC(C)=O)C(OC(C)=O)C(OC(C)=O)C2OC(C)=O)cc1` (stereo not drawn), the TGI came out at 13 µM.
Same read-out and setting: to `CCCCN1C(=O)CC2[C@@H]3CCc4cc(OC(C)=O)ccc4C3CC[C@]2(C)C1=O` (stereo partly drawn) belongs greater than 10 µM.

The test system of another assay is NCI-H23 lung. The assay can be described thus: NCI anticancer screen, dose series, 48 h.
In turn, `COc1ccc(C2CC(c3c(O)ccc4ccccc34)=NN2c2ccc([N+](=O)[O-])cc2[N+](=O)[O-])cc1OC` (stereo not drawn) returned a TGI greater than 85.4 µM.
Still for that read-out and setting: in the case of `C=C1CC(COc2cc(=O)oc3ccccc23)(c2ccccc2)OC1=O` (stereo not drawn) it was 4.92 µM; in that of `O=C(O)CSc1nnc(COc2ccc(Cl)cc2)n1-c1ccccc1`, greater than 100 µM.
In the case of `CN(C)CCCOc1nc2c(c(=O)n(C)c(=O)n2C)n1C` (tested in a mixture with another compound), the TGI is 97.6 µM.
Still for that read-out and setting: in the case of `C[N+]1=C2[B-](C(C)(C)C)=[N+](C(C)(C)C)[B-]2(C(C)(C)C)[N+](C)=C2[B-](C(C)(C)C)=[N+](C(C)(C)C)[B-]21C(C)(C)C` (stereo not drawn) it was greater than 100 µM.
On the same count and under the same terms, in the case of `Brc1ccc(CCNCCN2CCCCC2)cc1` it was 37 µM; in that of `OC1C2[C@@H](O)CCCN2C[C@@H](O)[C@H]1O` (stereo partly drawn), greater than 100 µM.
In the case of `COCOC1/C=C/CCCC#C[C@H](C)C(=O)CC1` (stereo partly drawn), the TGI turned out to be 19.4 µM.
Take `COc1ccc2[nH]c(O)c(/C=c3/cc4c(c(-c5cc(OC)c(OC)c(OC)c5)n3)=Nc3ccccc3-4)c2c1`: the GI50 was 5.28 µM and the TGI was greater than 100 µM.
